Test results from patent US10596169B2, “Cancer treatment with combination of plinabulin and taxane” (BeyondSpring Inc., priority 2013, dated 2020).

Columns and labels:
[1] = Example 2: animal weight and drug toxicity in MV522 xenograft mice; format: in vivo, athymic nu/nu mice
Experimental: (§1) Female nude mice (Hsd: Athymic Nude-Foxn1^nu) between 5 and 6 weeks of age weighing approximately 20 grams were obtained from Harlan, Inc. (Madison, Wis.). Animals were injected subcutaneously (SC) with approximately 1×10^7 MV522 cells harvested from tissue culture (1:1 matrigel:media). When tumors grew to approximately 100 cubic millimeters (mm^3) in size, animals were pair-matched by tumor size into treatment and control groups. Animals were ear-tagged and followed individually throughout the experiment.
(§2) Initial doses were administered on Day 1 following pair-matching. The experiment was carried out as both a tumor growth inhibition (TGI) and tumor growth delay (TGD) study. For TGI, the endpoint was when the average tumor volume of Group 1 reached 1.2 cm^3. For TGD, the endpoint was reached when each individual animal's tumor volume reached 1.0 cm^3. A 10 mg/ml stock vial of docetaxel was diluted in 0.9% saline on each day of dosing and administered intravenously (IV).
Individual and group mean weights ±SD and percent weight change were recorded twice weekly until study completion beginning Day 1. Group weights through Day 24 or 53 and weight nadir values are reported.

[2] = test system: MV522 human non-small cell lung tumor xenograph model; assay: Example 2: MV522 xenograft, NPI-2358 1, 4 or 24 h after docetaxel (TGI/TGD); format: in vivo, athymic nu/nu mice; settings: for MDS day +/− SD: endpoint 1.0 cm^3
Experimental: In vivo evaluation of plinabulin in combination with docetaxel in the MV522 human non-small cell lung tumor xenograph model in athymic nu/nu mice: schedule of drug administration
The objective of the example was to evaluate the potential additive or synergistic effects of plinabulin (NPI-2358) in combination with docetaxel by administering NPI-2358 at various time points (1 h, 4 h, or 24 h) after docetaxel in the MV522 model. Significant endpoints for this experiment included mean tumor growth inhibition (TGI) or regression, tumor growth delay (TGD) in large tumor, weight loss, and mortality.
as §1, §2
Same as in Example 1. This arm of the study was ended on Day 80 or 53 at the sponsor's request. Long-term survivors (animals not reaching the tumor volume endpoint by the preset time period (LTS)) were assigned an IDS value of the last study day (Day 80) and included in these calculations.
For comparison of activity with standard agent(s), gross or net log10 cell-kill values were converted to an arbitrary activity rating below: […]

[3] = G2: docetaxel 15 mg/kg IV + NPI-2358 vehicle 1 h after
[4] = G3: docetaxel 15 mg/kg IV + NPI-2358 vehicle 4 h after
[5] = G4: docetaxel 15 mg/kg IV + NPI-2358 vehicle 24 h after
[6] = G11: docetaxel 25 mg/kg IV + NPI-2358 vehicle 1 h after
[7] = G12: docetaxel 25 mg/kg IV + NPI-2358 vehicle 4 h after
[8] = G13: docetaxel 25 mg/kg IV + NPI-2358 vehicle 24 h after

CC(=O)O[C@@]12CO[C@@H]1C[C@H](O)[C@@]1(C)C(=O)[C@H](O)C3=C(C)[C@@H](OC(=O)[C@H](O)[C@@H](NC(=O)OC(C)(C)C)c4ccccc4)C[C@@](O)([C@@H](OC(=O)c4ccccc4)[C@H]21)C3(C)C [Docetaxel, docetaxel]
Final weight - Day 24 % change [1, 3]: +13%
Final weight - Day 24 AVG +/− SD [1, 3]: 22 ± 1 g
Weight nadir % change [1, 3]: −14%
Weight nadir day [1, 3]: 10
Final weight - Day 24 % change [1, 4]: +12%
Final weight - Day 24 AVG +/− SD [1, 4]: 23 ± 2 g
Weight nadir % change [1, 4]: −10%
Weight nadir day [1, 4]: 10
Final weight - Day 24 % change [1, 5]: +17%
Final weight - Day 24 AVG +/− SD [1, 5]: 23 ± 2 g
Weight nadir % change [1, 5]: −10%
Weight nadir day [1, 5]: 10
Final weight - Day 24 % change [1, 6]: −10%
Final weight - Day 24 AVG +/− SD [1, 6]: 18 ± 2 g
Weight nadir % change [1, 6]: −13%
Weight nadir day [1, 6]: 17
Final weight - Day 24 % change [1, 7]: −11%
Final weight - Day 24 AVG +/− SD [1, 7]: 17 ± 2 g
Weight nadir % change [1, 7]: −14%
Weight nadir day [1, 7]: 10
Final weight - Day 24 % change [1, 8]: −12%
Final weight - Day 24 AVG +/− SD [1, 8]: 17 ± 3 g
Weight nadir % change [1, 8]: −20%
Weight nadir day [1, 8]: 17
% TGI [2, 3]: 79%
Final tumor volume (Day 24) mean +/− SEM [2, 3]: 337 +/− 29
Log10 cell kill [2, 3]: 0.6
T-C (tumor growth delay) [2, 3]: 14
MDS day +/− SD [2, 3]: 38 ± 3 days
% TGI [2, 4]: 81%
Final tumor volume (Day 24) mean +/− SEM [2, 4]: 313 +/− 23
Log10 cell kill [2, 4]: 0.7
T-C (tumor growth delay) [2, 4]: 18
MDS day +/− SD [2, 4]: 42 ± 6 days
% TGI [2, 5]: 80%
Final tumor volume (Day 24) mean +/− SEM [2, 5]: 325 +/− 41
Log10 cell kill [2, 5]: 0.6
T-C (tumor growth delay) [2, 5]: 16
MDS day +/− SD [2, 5]: 40 ± 7 days
# of animals with tumor regression (% TR (#)) [2, 6]: 7
% TGI [2, 6]: 104%
% TR [2, 6]: 42%
Final tumor volume (Day 24) mean +/− SEM [2, 6]: 69 +/− 10
Log10 cell kill [2, 6]: 1.6
T-C (tumor growth delay) [2, 6]: 39
MDS day +/− SD [2, 6]: 63 ± 10 days
# of animals with tumor regression (% TR (#)) [2, 7]: 7
% TGI [2, 7]: 104%
% TR [2, 7]: 45%
Final tumor volume (Day 24) mean +/− SEM [2, 7]: 65 +/− 9
Log10 cell kill [2, 7]: 1.3
T-C (tumor growth delay) [2, 7]: 32
MDS day +/− SD [2, 7]: 56 ± 4 days
# of animals with tumor regression (% TR (#)) [2, 8]: 7
% TGI [2, 8]: 103%
% TR [2, 8]: 55%
Final tumor volume (Day 24) mean +/− SEM [2, 8]: 72 +/− 14
Log10 cell kill [2, 8]: 1.4
T-C (tumor growth delay) [2, 8]: 35
MDS day +/− SD [2, 8]: 59 ± 10 days
